The values that follow come from patent US20260335450A1, “TARGETED PROTEIN DEGRADATION THROUGH SITE-SPECIFIC RECRUITMENT OF UBIQUITIN LIGASE” (University of Pittsburgh - Of the Commonwealth System of …, priority 2023, published 2026).

The test system of test [1] is DUSP1. The note with it: cited from earlier work.
The test system of test [2] is MKP3. The note with it: cited from earlier work.
Test [3] has as its system mCherry-EGFP-Y151TetF. The test can be described thus: Degradation mechanism: proteasome inhibitor pre-treatment. The note with it: 10 μM inhibitor, 4 h pre-incubation; then 10 μM sTCO-PEG2-CRBN overnight. It counts as cell-based. The method, then: FIGS. 16A-16B. Degradation mechanism of sTCO-PEG2-CRBN. FIG. 16A) The degradation of mCherry-EGFP-Y151TetF was reduced when cells were pre-treated with proteasome inhibitor MG132 or epoxomicin, validating that sTCO-PEG2-CRBN induced degradation is mediated by the proteasome.
For mechanistic insight into sTCO-PEG2-CRBN degradation (FIG. 16) cells were transfected as described above. A 10 μM working solution of media containing either MG132 or epoxomicin was made by adding 1 μL of the respective proteasome inhibitor (10 mM in DMSO) into 999 μL of complete medium. Following removal of TetF, 200 μL of media supplemented with either MG132, epoxomicin, or DMSO was added to each well and the cells were incubated for 4 h. Next, a solution containing 50 μM of sTCO-PEG2-CRBN was made by adding 5 μL of sTCO-PEG2-CRBN (10 mM in DMSO) into 995 μL of complete medium. Following the allotted time for proteasome inhibitor incubation, 50 μL of 50 μM sTCO-PEG2-CRBN was added directly to each well, for a final volume of 250 μL and final concentration of 10 μM of sTCO-PEG2-CRBN. The cells were then incubated overnight at 37° C. with 5% CO2 before lysis and western blot analysis.

The subject of test [4] is mCherry-EGFP-Y151TetF. Briefly: Degradation mechanism: thalidomide-OH pretreatment, cereblon-mediated degradation. The test is classed as cell-based. The note with it: pretreatment with 100 µM of Thal-OH, then sTCO-PEG2-CRBN.
The conditions of test [5]: cited from earlier work.
For test [6], the system named is mCherry-EGFP-G134TetF. Briefly: In cellulo bioconjugation quantified with sTCO-CA and HaloTag. It counts as cell-based. The note with it: sTCO-CA then HaloTag. The procedure: (§1) FIGS. 1A-1B. Experimental workflow for the quantification of bioconjugation to UAA-bearing proteins expressed in cells. Following expression of the POI bearing a UAA at any surface position (e.g., A-E), the FIG. 1A) sTCO-chloroalkane ligand or FIG. 1B) sTCO-E3 ligase ligand, is added to the media and undergoes a selective bioconjugation with the UAA. Excess ligand is washed away and cells are FIG. 1A) lysed or FIG. 1B) incubated with sTCO-chloroalkane then lysed. The lysate is incubated with HaloTag protein and the bioconjugation is quantified via western blot.
(§2) Before comparing the degradation of different mCherry-EGFP mutants, validating the extent of bioconjugation to TetF at each position was required. A method for quantifying in cellulo protein bioconjugation that utilizes a strained trans-cyclooctene chloroalkane (sTCO-CA) to react with TetF and subsequently dimerize with the self-labeling enzyme, HaloTag, was previously […]. Using this technique, the extent of bioconjugation mCherry-EGFP-I129TetF (~90%) and mCherry-EGFP-G134TetF (~55%, FIG. 4D) was quantified. Bioconjugation to two new mCherry-EGFP-TetF mutants using the same method was also quantified (FIG. 7). […] By determining the extent of bioconjugation to TetF mutants across the surface of mCherry-EGFP, variations in degradation due to incomplete bioconjugation could be evaluated. […]

The test system of test [7] is mCherry-EGFP-I129TetF. The test is described as above. The note with it: sTCO-CA then HaloTag. The test is classed as cell-based. The method, then:
as §1, §2

Each structure is given as a SMILES string. Read-outs that look alike come from different tables or passages of the source. Residues, ends and D or L forms follow the SMILES beside them. *: point of attachment. Cbz = O=C(OCc1ccccc1)*

Consider `O=C1C(=Cc2ccccc2)C(NC2CCCCC2)c2ccccc21` (stereo not drawn) [BCI], for which, in test [1], the “inhibition of DUSP1” value is “inhibits DUSP1”. In addition, the “inhibition of MKP3” value in test [2] is recorded as “known allosteric inhibitor”.
Regarding `CC(C)C[C@@H](C=O)NC(=O)[C@H](CC(C)C)NC(=O)[C@H](CC(C)C)NC(=O)OCc1ccccc1` [MG132] (Cbz-Leu-Leu-Leu-aldehyde), the “effect of proteasome inhibitor pre-treatment on sTCO-PEG2-CRBN induced degradation” value in test [3] is “reduced”.
As to `O=C1CCC(N2C(=O)c3cccc(O)c3C2=O)C(=O)N1` (stereo not drawn) [Thal-OH, thalidomide-OH], the “effect of thalidomide-OH pretreatment on sTCO-PEG2-CRBN degradation” value in test [4] is listed as “reduced degradation”.
For the molecule `OC1CC/C=C\CCC1` (stereo not drawn) [a], the Second-order rate constant in test [5] (Aqueous solvent, ax iso) is 80200 M⁻¹ s⁻¹; in test [5] (Aqueous solvent, eq iso) it was 22600 M⁻¹ s⁻¹; in test [5] (Mixture (Org water) 90:10) it was 2000 (90:10)^Ref 5 M^−1s^−1; in test [5] (Organic solvent), 1140^Ref 5 M^−1s^−1.
As to `OCC1[C@@H]2C/C=C\CCC[C@@H]12` (stereo partly drawn) [b], the Second-order rate constant in test [5] (Aqueous solvent) is 3300000^Ref 2 M^−1s^−1; in test [5] (Organic solvent), 22000^Ref 3 M^−1s^−1.
As to `OCC1O[C@H]2C/C=C\CCC[C@H]2O1` (stereo partly drawn) [c], the Second-order rate constant in test [5] (Aqueous solvent, anti iso) was 318000 M⁻¹ s⁻¹; in test [5] (Aqueous solvent, syn iso), 366000 M⁻¹ s⁻¹; in test [5] (Mixture (Org water) 55:45), 167000 (55:45)^Ref 3 M^−1s^−1.
As for `OCC1[C@@H]2CCC#CCC[C@@H]12` (stereo partly drawn) [d], the Second-order rate constant in test [5] (Mixture (Org water) 55:45) was 1245 (55:45)^Ref 6 M^−1s^−1; in test [5] (Organic solvent), 45^Ref 4 M^−1s^−1.
Take `CC[C@H](C)[C@H](NC(=O)[C@H]([C@@H](C)CC)N(C)C(C)=O)C(=O)N[C@H](C(=O)N[C@@H](CC(C)C)C(=O)[C@@]1(C)CO1)[C@@H](C)O` [epoxomicin]: in test [3], the “effect of proteasome inhibitor pre-treatment on sTCO-PEG2-CRBN induced degradation” value is listed as “reduced”.
Consider `O=C(O)CC1CC2C=CC1C2` (stereo not drawn) [h], for which the Second-order rate constant in test [5] (Aqueous solvent) is listed as 1.9^Ref 9 M^−1s^−1.
Regarding `C=Cc1ccccc1` [j], the Second-order rate constant in test [5] (Mixture (Org water) 50:50) is recorded as 0.05 (50:50)^Ref 11 M^−1s^−1.
With `C=CCSC[C@H](N)C(=O)O` [m], the Second-order rate constant in test [5] (Mixture (Org water) 50:50) is reported as 0.002 (50:50)^Ref 13 M^−1s^−1.
For `O=C(NCCOCCOCCCCCCCl)OCC1C2CC/C=C/CCC21` (stereo not drawn) [sTCO-CA], the extent of bioconjugation in test [6] is on record as ~ 55%; in test [7] it was ~ 90%.
